“Also recorded” adds a separate entry of the source.
Tests used:
[1] = test system: pre-formed S. lugdunensis biofilms; experiment: Microtiter plate biofilm detachment assay; type: cell-based, Staphylococcus lugdunensis
Procedure: 40 mM sodium metaperiodate (NaIO4, Sigma-Aldrich) in water, 40 μg/mL purified recombinant dispersin B (obtained from Kane Biotech Inc., Winnipeg, Manitoba, Canada) in sodium phosphate buffer (50 mM sodium phosphate (pH 5.8), 100 mM NaCl), 100 μg/mL proteinase K (Roche Applied Science) in 10 mM Tris-HCl pH 7.5, 10 U/mL trypsin (Promega Corp., Madison, Wis.) in 10 mM Tris-HCl pH 7.5, 100 μg/mL chymotrypsin (Sigma-Aldrich) in 10 mM Tris-HCl pH 7.5, and 100 μg/mL thermolysin (Sigma-Aldrich) in 10 mM Tris-HCl pH 7.5 were tested for their ability to detach pre-formed S. lugdunensis biofilms from polystyrene microtiter plate wells. For certain experiments, proteinase K was inactivated by boiling for 40 minutes.
Biofilms grown in TSBgluc1% were formed in wells of microtiter plates and washed twice with deionized water, as described above for the microtiter plate biofilm formation assay. 100 μL of NaIO4, enzyme, or suitable control was carefully added so as not to mechanically detach biofilms on the bottoms of wells. Plates were incubated at 37° C. for 2 hours, and contents of wells were discarded and washed twice with deionized water. Plates were air-dried overnight, stained with 0.1% safranin for 1 minute, and processed as described above to quantify the amount of stained biofilm remaining after treatment, relative to treatment with the control reagent. Four wells were measured for each treatment condition. Assays were repeated two or three times on separate days with similar results.

[2] = test system: pre-formed biofilms of S. epidermidis RP62A; experiment: Microtiter plate biofilm detachment assay; type: cell-based, Staphylococcus epidermidis; settings: 2 hours at 37° C.; safranin OD492
[3] = test system: pre-formed biofilms of S. carnosus TM300+pCN27; experiment: Microtiter plate biofilm detachment assay; type: cell-based, Staphylococcus carnosus; settings: 2 hours at 37° C.; safranin OD492
[4] = test system: S. lugdunensis clinical isolates; experiment: Microtiter plate biofilm formation assay; type: cell-based, Staphylococcus lugdunensis
Procedure: (§1) Bacteria stored at −70° C. were freshly streaked on sheep's blood agar or trypticase soy agar before each replicate experiment. For microtiter plate biofilm formation and detachment assays, immunodetection assays, and confocal microscopy assays (unless stated otherwise), isolated colonies from 16 to 24 hour-old plates were grown in trypticase soy broth (BD BBL, Franklin Lakes, N.J.) supplemented with 1% (w/v) sterile-filtered glucose (TSBgluc1%) with shaking at 130 rpm for 22-24 hours. Unless otherwise noted, all experiments were incubated in ambient air at 37° C.
(§2) Biofilm formation was assayed using a microtiter plate assay as described elsewhere (Christensen et al., J. Clin. Microbiol., 22:996-1006 (1985)), with modifications as described elsewhere (Chaignon et al., Appl. Microbiol. Biotechnol., 75(1):125-132 (2007) and Frank and Patel, Diagn. Microbiol. Infect. Dis., 57:355-359 (2007)). Briefly, cultures were adjusted with TSBgluac1% to match the turbidity of a 1.0 McFarland standard (˜1-2×10^8 cfu/mL) and diluted 1:50 in TSBgluc1% or TSBgluc1% containing various concentrations of sodium chloride (1-5%, w/v) or ethanol (0.5-4%, v/v). For experiments examining the effect of glucose concentration on biofilm formation, bacteria were grown overnight, adjusted to 1.0 McFarland, and diluted in TSB containing the corresponding amount of glucose being tested (0.5-5%, w/v). 200 μL aliquots of each diluted culture were placed into four wells of 96-well microtiter plates (Nuclon Delta, Nalge Nunc International, Rochester, N.Y.), and incubated for 24 hours. Cell growth was measured by reading the OD600 nm on a microplate reader (Multiskan, Thermo Electron, Waltham, Mass.). Culture media was discarded, and wells were washed twice by fully submerging plates in deionized water to remove non-adherent cells and allowed to air-dry overnight. Biofilms remaining in the wells were stained with 0.1% safranin for 1 minute, rinsed under running tap water to remove excess stain, and air-dried overnight. In order to ensure homogeneity among stained material in the wells, stained biofilms were resuspended in 200 μL of 30 percent glacial acetic acid, and the OD492 nm was measured.

S. aureus SA113 = experiment: Microtiter plate biofilm formation assay; type: cell-based, Staphylococcus aureus
Procedure: as §1, §2

S. epidermidis RP62A = experiment: Microtiter plate biofilm formation assay; type: cell-based, Staphylococcus epidermidis
Procedure: as §1, §2

[5] = 2 hours at 37° C., safranin OD492, 15 clinical isolates
[6] = increasing salt concentrations (1-5% sodium chloride)
[7] = increasing ethanol concentrations (0.5-4% v/v) in TSBgluc1%

## trypsin
[1]; [5]
  biofilm detachment compared to buffer: Concordant results
[1]; isolates IDRL-2414 and IDRL-2526, 10 U/mL, 2 hours at 37° C.
  biofilm release: noticeably more resistant to release
[2]
  biofilm detachment compared to buffer: Concordant results
[3]
  biofilm detachment compared to buffer: Concordant results

## [Cl-].[Na+] [sodium chloride]
[4]; 5% sodium chloride
  biofilm formation: Essentially no measurable quantity of biofilm could be detected
[4]; TSBgluc1% containing 1 or 2% sodium chloride, 11/15 isolates
  S. lugdunensis isolates that formed more biofilm: 73%
[4]; higher concentrations of salt (above 2% sodium chloride)
  adherence to microtiter wells: substantially reduced
[4]; [6]
  growth (optical density of the biomass in each well): not affected
S. aureus SA113; 5% sodium chloride
  biofilm compared to baseline biofilm formation: significantly reduced, yet still discernable
S. aureus SA113; TSBgluc1% with 1-2% sodium chloride
  biofilm levels: increase
S. aureus SA113; [6]
  growth (optical density of the biomass in each well): not affected
S. epidermidis RP62A; 5% sodium chloride
  biofilm compared to baseline biofilm formation: not affected
S. epidermidis RP62A; TSBgluc1% with 1-3% sodium chloride
  biofilm levels: increase
S. epidermidis RP62A; [6]
  growth (optical density of the biomass in each well): not affected

## CCO [ethanol]
[4]; 2% ethanol, all S. lugdunensis that formed measurable baseline biofilms
  adherence: prevent the adherence
[4]; 2% ethanol, isolates IDRL-2554, IDRL-2640 and IDRL-5254 only
  killing / growth of isolates: killed; also recorded: inhibited growth
[4]; 4% ethanol, all S. lugdunensis isolates
  killing of bacteria: bactericidal
[4]; most ethanol concentrations, isolates with baseline biofilm OD492 >=0.150
  levels of biofilm production: reduced the levels of biofilm production
S. aureus SA113; [7]
  biofilm production: significant reductions in biofilm production
S. epidermidis RP62A; [7]
  biofilm production: significant reductions in biofilm production

## chymotrypsin
[1]; [5]
  biofilm detachment compared to buffer: detach S. lugdunensis biofilms selectively

## [Na+].[O-][I+3]([O-])([O-])[O-] [sodium metaperiodate]
[1]; 40 mM, 2 hours at 37° C., 8/15 isolates
  S. lugdunensis biofilms on whose release there was moderate to little effect: 53%
[1]; seven isolates IDRL-2394, IDRL-2526, IDRL-2554, IDRL-2588, IDRL-2622, IDRL-2640, IDRL-5258, 40 mM, 2 hours
  biofilm detachment compared to buffer: greater susceptibility
[2]
  biofilm detachment compared to buffer: substantial detachment
[3]
  biofilm detachment compared to buffer: essentially completely released
